Here are results for 14 molecules from paper PMC4926252 (Scientific Reports, 2016).

The term Kd denotes the free concentration of one partner at which half of the binding sites on the other are occupied at equilibrium, for simple one-to-one binding. Lower therefore signals higher affinity. As usually defined, the stoichiometry N is the number of molecules, sites or subunits per partner or assembly.

The target in one data set is PstS (Pseudomonas aeruginosa, UniProt G3XDA8). Nature of the data set: biochemical. In kind it is binding. The conditions noted are these: for ΔH: 25 °C, unfolded/refolded PstS, 10 mM Tris/HCl pH 8.0.
Data set [1] concerns the target T1, CtpH-LBD (Pseudomonas aeruginosa, UniProt G3XDA3). Nature of the data set: biochemical. It is filed as binding. To be noted: for binding: titrated with 5 mM ligand.
For data set [2], the system named is P. aeruginosa PAO1. The conditions noted are these: cited from earlier work.
Data set [3] addresses T1, CtpH-LBD. The conditions noted are these: CtpH-LBD (51 μM) saturated with 5 mM Pi.
For another data set, the target named is CtpL-LBD (Pseudomonas aeruginosa, UniProt Q9HUW6). The conditions noted are these: ITC. How it is done: E. coli BL21 (DE3) containing the expression plasmids were cultured in LB medium supplemented with 50 μg ml^−1 kanamycin at 30 °C until an OD660 of 0.6, at which point 0.1 mM IPTG was added. […] Pellets were resuspended in buffer A (30 mM Tris, 300 mM NaCl, 10 mM imidazole, 5% (v/v) glycerol, pH 7.0) and broken by French press at 1000 psi. […] Protein was diluted to 10 μM and refolded by two consecutive dialyses into 10 mM Tris/HCl, pH 8.0. Aggregated protein corresponding to misfolded species was removed by filtration using 0.22 μm cut-off filters.
The mean enthalpies from the injection of ligands into buffer were subtracted from titration data prior to analysis with the “One binding site model” of ORIGIN following the algorithm described in[51].

For data set [4], the system named is P. aeruginosa PAO1.
Data set [5] has as its target T1, CtpH-LBD. To be noted: sedimentation velocity and equilibrium, with and without Pi.
In data set [6] the target is G3XDA3. In words: AUC; sedimentation velocity of CtpH-LBD in the presence of 500 uM Pi; 45,000 rpm, 6 °C, polybuffer.
Data set [7] deals with G3XDA3. In words: AUC; sedimentation equilibrium of CtpH-LBD in the presence of Pi; 11,800, 18,100 and 31,000 rpm, 6 °C, polybuffer.
Data set [8] addresses T2, PstS (PA5369), periplasmic phosphate-binding protein, recombinant (P. aeruginosa, UniProt G3XDA8 25-323).
T2 construct: also called Pi-loaded PstS; source: E. coli BL21 (DE3), overexpressed, purified (HisTrap)
T2 sequence: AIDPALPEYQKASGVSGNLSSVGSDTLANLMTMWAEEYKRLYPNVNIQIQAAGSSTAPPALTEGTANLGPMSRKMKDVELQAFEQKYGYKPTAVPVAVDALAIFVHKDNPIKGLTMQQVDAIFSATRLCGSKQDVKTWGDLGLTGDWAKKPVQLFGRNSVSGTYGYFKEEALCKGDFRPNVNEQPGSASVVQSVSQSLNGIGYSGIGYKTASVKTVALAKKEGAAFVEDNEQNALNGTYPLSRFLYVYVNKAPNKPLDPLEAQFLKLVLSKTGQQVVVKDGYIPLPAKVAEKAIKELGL
Nature of the data set: AUC; sedimentation velocity, 45,000 rpm, 6 °C, polybuffer; CtpL-LBD and PstS individually and as a mixture; c(s) method. The conditions noted are these: both partners purified.

Data set [9] has as its target T2, PstS (PA5369), periplasmic …. In words: ITC; 5 uM Pi-loaded PstS in the cell titrated with 80 uM CtpL-LBD; 25 °C; one binding site model; means of three experiments. To be noted: both partners purified. (In general: In ITC the heat of successive injections is recorded.)

Like-named read-outs stand apart in the source and are kept apart here.

Molecule `Nc1ncnc2c1ncn2[C@@H]1O[C@H](COP(=O)(O)OP(=O)(O)OP(=O)(O)O)[C@@H](O)[C@H]1O` [ATP] registered a dissociation constant (Kd) on PstS of 300 ± 100 nM. On PstS (ITC), the ΔH was -2.9 ± 0.1 kcal/mol. At CtpH-LBD [1] (pH 7), the KD result is recorded as “Binding ^1”.
For the molecule `O=[As](O)(O)O` [arsenate], the chemotaxis entry in the data set on P. aeruginosa PAO1 [2] (Pi starved cells) was “attracted to arsenate”. At CtpH-LBD [1] (ITC, 25 °C, polybuffer pH 7.0), the KD result is given as “No binding”. Besides, the binding result on CtpH-LBD [1] (ITC) is listed as “did not bind”.
`O=[As][O-].[Na+]` [arsenite]: the KD entry on CtpH-LBD [1] (ITC, 25 °C, polybuffer pH 7.0) is recorded as “No binding”. On CtpH-LBD [1] (ITC), the binding result is “did not bind”.
On CtpH-LBD [1], `Nc1ncnc2c1ncn2[C@@H]1O[C@H](COP(=O)(O)OP(=O)(O)O)[C@@H](O)[C@H]1O` [ADP] registered a Kd of 103000 ± 21000 nM. The molecule further registered a ΔH on CtpH-LBD [1] (pH 7) of -2.7 ± 1 kcal/mol.
Consider `C=C(OP(=O)(O)O)C(=O)O` [phosphoenolpyruvate], for which, on CtpH-LBD [1] (pH 7), the KD result was “No binding”.
On to `O=P(O)(O)O` [Pi, K2HPO4], for which the ΔH of unfolding at CtpH-LBD [3] (without Pi 28.2 kcal/mol) is recorded as 39.9 + /−1.5 kcal/mol. Further, the Tm at CtpH-LBD [3] (without Pi 46.9 °C) was 56.6 + /−0.2 °C. The binding result at CtpL-LBD (CtpL-LBD denatured, dialyzed and refolded) was “did not show any Pi binding”; at PstS (ITC, PstS as purified from E. coli, before unfolding/refolding) it was “no binding”. Moreover, the KD entry on CtpL-LBD (conducted at different temperatures) is on record as “No binding”. Further, the chemotaxis entry in the data set with P. aeruginosa PAO1 [4] (ctpH mutant, 0.01 mM Pi) was “no significant changes”; in the data set on P. aeruginosa PAO1 [4] (ctpH mutant, 0.1 and 10 mM Pi) it was “compromised chemotaxis”; in the data set on P. aeruginosa PAO1 [4] (pstS deletion mutant, low Pi (0.01 and 0.1 mM)) it was “dramatically reduced chemotaxis”; with P. aeruginosa PAO1 [4] (pstS mutant, high Pi (10 mM)), “did not greatly affect chemotaxis”; in the data set with P. aeruginosa PAO1 [4] (pstS/ctpH double mutant), “only very marginal Pi chemotaxis”. Further, the “effect on oligomeric state of CtpH-LBD” value on CtpH-LBD [5] is recorded as “causes CtpH-LBD dimerization”. Besides, the dissociation constant Kd on PstS was 7 ± 1 nM. Besides, the ΔH on PstS (ITC) was -5.1 ± 0.1 kcal/mol. On PstS (ITC, refolded PstS), this molecule came in with a TΔS of 6.0 ± 0.1 kcal/mol. Further, the n-value at PstS (ITC, refolded PstS) is on record as 0.29 ± 0.02.
Consider `O=C[C@H](O)[C@@H](O)[C@H](O)[C@H](O)COP(=O)(O)O` [D-glucose 6-phosphate], for which the KD entry at CtpH-LBD [1] (pH 7) is “No binding”.
On to `Nc1ncnc2c1ncn2[C@@H]1O[C@H](COP(=O)(O)O)[C@@H](O)[C@H]1O` [AMP], for which the KD entry on CtpH-LBD [1] (pH 7) was “No binding”.
For `O=P(O)(O)OP(=O)(O)O` [pyrophosphate], the chemotaxis result in the data set on P. aeruginosa PAO1 [2] (P. aeruginosa) is on record as “chemotaxis towards millimolar concentrations of pyrophosphate”. This molecule also came in with a Kd on PstS of 2600 ± 300 nM. In addition, the ΔH at PstS (ITC) was -8.3 ± 0.3 kcal/mol.
Regarding `O=CC(O)COP(=O)(O)O` (racemic) [DL-glyceraldehyde 3-phosphate], the KD entry on CtpH-LBD [1] (pH 7) is listed as “No binding”.
Turning to `O=C(O)[C@H](O)[C@@H](O)[C@H](O)[C@H](O)COP(=O)(O)O` [6-phosphogluconate], the KD result on CtpH-LBD [1] (pH 7) is on record as “No binding”.
Same read-out and setting: in the case of `O=C(CO)[C@@H](O)[C@H](O)[C@H](O)COP(=O)(O)O` [D-fructose 6-phosphate] it was “No binding”.

B1: ligand binding domain of the chemoreceptor CtpH (CtpH-LBD) (protein)
chain: GSLTGDVRAYRELLGGPVRAAQLIDEANLQFRGQVQEWKNVLLRGRQTEAQTKYWSQFEAQERAVQDILGRLGSVAEGELKDRVERLREEHRRLGTAYRQGRQRFLEAGADPIAGDQAVTGIDRATTAQMQTLRDELHQASDLHSSSISAEARRT
Consider B1, for which, in the data set with G3XDA3 [6], the “N with Pi” value is given as “dimer (39,566 Da)”; the “N with Pi (minor species)” value is “tetramer (79,132 Da)”; the “percent of the sedimenting material in the dimer peak, with Pi” value is 86% of the sedimentation material. Besides, the N with Pi with G3XDA3 [7] turned out to be 2.

B2: ligand binding domain of the chemoreceptor CtpL (CtpL-LBD) (domain or fragment, P. aeruginosa, UniProt Q9HUW6 27-324, looked up)
chain: WSQRAMERPFQLLDQYLELSQRFDEQVARNIRQYLGSGDAVRQQAALQALESLAEALPELPPDLARTLAPSLAELREFSAGDLLAAGKLAGDPQGLLLQAERDLTGNLEQWSAYLDAAAGQPQAGAYRTPLLLASLHLTRLSLARAKLVESANPALAGDVERELANLREQAGRIEALPLLGVLDEQRSASDDFAAMMGLAGDAEAGAGNAEDRGVALRRELASLLQRYPDELRRTRDLIERRQQLSADTGARLDAVRQALATLEPQVRGERQRLQGQVRLIQGGMIALILLIALAIDS
notes: Cloned into pET28b(+); Held on a HisTrap column as bait in the pull-down; The discussion gives 286 amino acids for CtpL-LBD, whereas 27-324 is 298 residues; also called PA4844; source: E. coli BL21 (DE3), purified (HisTrap) from the soluble fraction
With B2, the “stoichiometry N” value in [8] worked out at 1. Moreover, the dH in data set [9] was -3.1 kcal/mol.
